Experiments:
Venetoclax = compound: CC1(C)CCC(CN2CCN(c3ccc(C(=O)NS(=O)(=O)c4ccc(NCC5CCOCC5)c([N+](=O)[O-])c4)c(Oc4cnc5[nH]ccc5c4)c3)CC2)=C(c2ccc(Cl)cc2)C1 [Venetoclax]; conditions: max 1 µM
Method in brief: (§1)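 Cancer cell lines were dosed for 72 hours (final DMSO typically 0.2%) after 24 hours at 37°C and 5% CO2 in 1536-well plates containing 7.5 μl DMEM/F12 or RPMI with 10% FBS. Viability came from CellTiter-Glo 2.0 luminescence, scaled between blank-well and DMSO-well means, and dose responses were fitted to a two-parameter logistic curve with a non-linear mixed effects model. The single-agent IC50 was obtained from this fit.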

Capivasertib = compound: C1CN(CCC1(C(=O)N[C@@H](CCO)C2=CC=C(C=C2)Cl)N)C3=NC=NC4=C3C=CN4 [Capivasertib]
Method in brief: as §1

Palbociclib = compound: CC(=O)c1c(C)c2cnc(Nc3ccc(N4CCNCC4)cn3)nc2n(C2CCCC2)c1=O [Palbociclib]; conditions: max 10 µM
Method in brief: as §1

Olaparib = compound: O=C(c1cc(Cc2n[nH]c(=O)c3ccccc23)ccc1F)N1CCN(C(=O)C2CC2)CC1 [Olaparib]; conditions: max 10 µM
Method in brief: as §1

Prexasertib = compound: COc1cccc(OCCCN)c1-c1cc(Nc2cnc(C#N)cn2)n[nH]1 [Prexasertib]; conditions: max 1 µM
Method in brief: as §1

AZD0156 = compound: CN(C)CCCOc1ccc(-c2ccc3ncc4c(c3c2)n(C2CCOCC2)c(=O)n4C)cn1 [AZD0156]; conditions: max 3 µM
Method in brief: as §1

AZD8186 = compound: C[C@@H](Nc1cc(F)cc(F)c1)c1cc(C(=O)N(C)C)cc2c(=O)cc(N3CCOCC3)oc12 [AZD8186]; conditions: max 3 µM
Method in brief: as §1

AZD4320 = compound: CN(CC[C@H](CSC1=CC=CC=C1)NC2=C(C=C(C=C2)S(=O)(=O)NC(=O)C3=CC=C(C=C3)N4CCC(CC4)[C@H](C5=CC=CC=C5C6=CC=C(C=C6)Cl)O)S(=O)(=O)C(F)(F)F)CCO [AZD4320]; conditions: max 1 µM
Method in brief: as §1

AZD5991 = compound: Cc1c2c(nn1C)CSCc1cc(n(C)n1)CSc1cc(c3ccccc3c1)OCCCc1c(C(=O)O)n(C)c3c-2c(Cl)ccc13 [AZD5991]; conditions: max 1 µM
Method in brief: as §1

AZD2811 = compound: CCN(CCO)CCCOc1ccc2c(Nc3cc(CC(=O)Nc4cccc(F)c4)[nH]n3)ncnc2c1 [AZD2811]; conditions: max 1 µM
Method in brief: as §1

Selumetinib = compound: Cn1cnc2c(F)c(Nc3ccc(Br)cc3Cl)c(C(=O)NOCCO)cc21 [Selumetinib]; conditions: max 10 µM
Method in brief: as §1

AZD5153 = compound: COc1nnc2ccc(N3CCC(c4ccc(OCCN5CCN(C)C(=O)[C@H]5C)cc4)CC3)nn12 [AZD5153]; conditions: max 1 µM
Method in brief: as §1

AZD6738 = compound: C[C@@H]1COCCN1C2=NC(=NC(=C2)C3(CC3)[S@](=N)(=O)C)C4=C5C=CNC5=NC=C4 [AZD6738]; conditions: max 10 µM
Method in brief: as §1

Alisertib = compound: COc1cc(Nc2ncc3c(n2)-c2ccc(Cl)cc2C(c2c(F)cccc2OC)=NC3)ccc1C(=O)O [Alisertib]; conditions: max 10 µM
Method in brief: as §1

Doxorubicin = compound: COc1cccc2c1C(=O)c1c(O)c3c(c(O)c1C2=O)C[C@@](O)(C(=O)CO)C[C@@H]3O[C@H]1C[C@H](N)[C@H](O)[C@H](C)O1 [Doxorubicin]; conditions: max 1 µM
Method in brief: as §1

Crizotinib = compound: C[C@@H](Oc1cc(-c2cnn(C3CCNCC3)c2)cnc1N)c1c(Cl)ccc(F)c1Cl [Crizotinib]; conditions: max 10 µM
Method in brief: as §1

AZD1390 = compound: CC(C)n1c(=O)n(C)c2cnc3cc(F)c(-c4ccc(OCCCN5CCCCC5)nc4)cc3c21 [AZD1390]; conditions: max 0.3 µM
Method in brief: as §1

Gefitinib = compound: COc1cc2ncnc(Nc3ccc(F)c(Cl)c3)c2cc1OCCCN1CCOCC1 [Gefitinib]; conditions: max 10 µM
Method in brief: as §1

Dasatinib = compound: CC1=C(C(=CC=C1)Cl)NC(=O)C2=CN=C(S2)NC3=CC(=NC(=N3)C)N4CCN(CC4)CCO [Dasatinib]; conditions: max 2 µM
Method in brief: as §1

Lapatinib = compound: CS(=O)(=O)CCNCc1ccc(-c2ccc3ncnc(Nc4ccc(OCc5cccc(F)c5)c(Cl)c4)c3c2)o1 [Lapatinib]; conditions: max 10 µM
Method in brief: as §1

AZD1775 = compound: C=CCn1c(=O)c2cnc(Nc3ccc(N4CCN(C)CC4)cc3)nc2n1-c1cccc(C(C)(C)O)n1 [AZD1775]; conditions: max 3 µM
Method in brief: as §1

Savolitinib = compound: C[C@@H](c1ccc2nccn2c1)n1nnc2ncc(-c3cnn(C)c3)nc21 [Savolitinib]; conditions: max 1 µM
Method in brief: as §1

AZD7648 = compound: Cc1cc2ncnn2cc1Nc1ncc2c(n1)n(C1CCOCC1)c(=O)n2C [AZD7648]; conditions: max 10 µM
Method in brief: as §1

SG3199 = compound: CC1=CN2[C@@H](C1)C=NC3=CC(=C(C=C3C2=O)OC)OCCCCCOC4=C(C=C5C(=C4)N=C[C@@H]6CC(=CN6C5=O)C)OC [SG3199]; conditions: max 0.001 µM
Method in brief: as §1

SN-38 = compound: CCc1c2c(nc3ccc(O)cc13)-c1cc3c(c(=O)n1C2)COC(=O)[C@]3(O)CC [SN-38]; conditions: max 0.3 µM
Method in brief: as §1

Trametinib = compound: CC(=O)Nc1cccc(-n2c(=O)n(C3CC3)c(=O)c3c(Nc4ccc(I)cc4F)n(C)c(=O)c(C)c32)c1 [Trametinib]; conditions: max 1 µM
Method in brief: as §1

Taselisib = compound: Cc1nc(-c2cn3c(n2)-c2ccc(-c4cnn(C(C)(C)C(N)=O)c4)cc2OCC3)n(C(C)C)n1 [Taselisib]; conditions: max 10 µM
Method in brief: as §1

Cell Line	IC50, cell viability 72 h (Venetoclax) [nM]	IC50, cell viability 72 h (Capivasertib; max 10 µM) [nM]	IC50, cell viability 72 h (Palbociclib) [nM]	IC50, cell viability 72 h (Olaparib) [nM]	IC50, cell viability 72 h (Prexasertib) [nM]	IC50, cell viability 72 h (AZD0156) [nM]	IC50, cell viability 72 h (AZD8186) [nM]	IC50, cell viability 72 h (AZD4320) [nM]	IC50, cell viability 72 h (AZD5991) [nM]	IC50, cell viability 72 h (AZD2811) [nM]	IC50, cell viability 72 h (Selumetinib) [nM]	IC50, cell viability 72 h (AZD5153) [nM]	IC50, cell viability 72 h (AZD6738) [nM]	IC50, cell viability 72 h (Alisertib) [nM]	IC50, cell viability 72 h (Doxorubicin) [nM]	IC50, cell viability 72 h (Crizotinib) [nM]	IC50, cell viability 72 h (AZD1390) [nM]	IC50, cell viability 72 h (Gefitinib) [nM]	IC50, cell viability 72 h (Dasatinib) [nM]	IC50, cell viability 72 h (Lapatinib) [nM]	IC50, cell viability 72 h (AZD1775) [nM]	IC50, cell viability 72 h (Savolitinib) [nM]	IC50, cell viability 72 h (AZD7648) [nM]	IC50, cell viability 72 h (SG3199) [nM]	IC50, cell viability 72 h (SN-38) [nM]	IC50, cell viability 72 h (Trametinib) [nM]	IC50, cell viability 72 h (Taselisib) [nM]	IC50, cell viability 72 h (Capivasertib; max 3 µM) [nM]
LU-99A (Non-Small Cell Lung Carcinoma)	> 1000	> 10000	> 10000	> 10000	77.1	> 3000	> 3000	> 1000	> 1000	> 1000	> 10000	> 1000	> 10000	> 10000	577	> 10000	> 300	> 10000	1510	> 10000	> 3000	> 1000	> 10000	> 1	39.7	163	3080	–
NB(TU)1-10 (Neuroblastoma)	–	–	–	> 10000	8.06	> 3000	–	–	–	> 1000	–	–	6880	–	468	–	–	–	–	–	835	–	> 10000	> 1	17	–	–	> 3000
SNU-C5 (Colorectal Carcinoma)	> 1000	> 10000	> 10000	> 10000	21.8	> 3000	> 3000	> 1000	> 1000	> 1000	> 10000	578	4000	9360	> 1000	> 10000	> 300	> 10000	> 2000	> 10000	507	> 1000	> 10000	> 1	43.5	563	2010	–
NCI-H2369 (Mesothelioma)	> 1000	> 10000	> 10000	> 10000	> 1000	> 3000	> 3000	> 1000	> 1000	> 1000	> 10000	> 1000	> 10000	> 10000	> 1000	> 10000	> 300	> 10000	> 2000	> 10000	> 3000	> 1000	> 10000	> 1	> 300	> 1000	> 10000	–
